From ChEMBL document CHEMBL1201862, “PubChem BioAssay data set” (2004)
Activity calls are given as the source filed them.

Assays:
[1] = molecular target: 5-hydroxytryptamine receptor 1A (Homo sapiens, UniProt P08908); format: functional
[2] = general mammalian cell viability loss – inhibitor set, cherry-pick, set 2, cytotoxicity control for miR-122 modulator project, dose response (AID 720697); format: functional, cell-based
[3] = general mammalian cell viability loss – activator set, cherry-pick, cytotoxicity control for miR-122 modulator project, dose response (AID 720690); format: functional, cell-based;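 further: HEK293T human cells scored for general mammalian cytotoxicity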
[4] = system: Vero; assay: mammalian cell viability reduction – secondary assay, cytotoxicity control for West Nile virus antiviral project, dose response (AID 1650); format: functional; conditions: Chlorocebus sabaeus
[5] = Trypanosoma cruzi growth suppression in host cells – NIH3T3 host cells, beta-gal luminescence, confirmation (AID 2044); format: functional, cell-based;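 further: intracellular parasites grown in NIH/3T3 mouse fibroblasts as host cells; luminescent beta-galactosidase reporter signal from transgenic T. cruzi replicating inside host cells; inhibitors lower the luminescence signal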
[6] = NIH3T3 cell viability loss – ATP luminescence, mouse fibroblasts, counter-screen, dose response (AID 2010); format: functional, cell-based;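 further: cells exposed to compound for about 90 hours before reading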
[7] = system: Vero; assay: inhibition of WNV-induced cytopathic effect – cell-based, CPE readout (AID 1621); format: functional; conditions: Chlorocebus sabaeus
[8] = M. tuberculosis growth inhibition, HTS (AID 449762); format: functional
[9] = growth inhibition of yeast DHODH-expressing 3D7 parasites – SYBR Green, dry powder samples, dose response (AID 1159570); format: functional, cell-based;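 further: parasite growth measured after 72 hours of compound exposure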
[10] = P. falciparum Dd2 growth inhibitors, dose response, SYBR Green, cherry-picked samples (AID 1159567); format: functional, cell-based
[11] = Dd2 malaria parasite growth inhibition potency – SYBR Green, dry powder samples, dose response (AID 1159566); format: functional, cell-based;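 further: potency for growth inhibition with lower SYBR green DNA signal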
[12] = growth inhibition of PfATP4-mutant resistant parasites – NITD609-resistant line, SYBR Green, dry powder, dose response (AID 1159571); format: functional, cell-based;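 further: parasites synchronized at ring stage by sorbitol before testing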
[13] = toxicity to human hepatoma HepG2 cells – cell-based, cherry-picked samples, cytotoxicity control, dose response (AID 1159577); format: functional
[14] = IC50 of insulin release inhibition, rat insulinoma INS-1E line, 5 mM glucose, cell-based (AID 1117331); format: functional
[15] = system: P388/ADR; assay: cells; format: functional; conditions: Mus musculus
[16] = system: SN12K1; assay: cells; format: functional; conditions: Homo sapiens
[17] = system: P388; assay: cells; format: functional; conditions: Mus musculus
[18] = glucagon-like peptide-1 release potency in STC-1, concentration-response, half-maximal inhibitory concentration in the STC-1 line (AID 1117345); format: functional, cell-based
[19] = Potency on glucagon-like peptide 1 release, dose-response in NCI-H716 cell line, half maximal inhibitory concentration (AID 1117344); format: functional, cell-based
[20] = rise of 2N DNA cells, HeLa – IC50, dose response (AID 1117349); format: functional, cell-based
[21] = rise of 4N DNA cells, HeLa – IC50, dose response (AID 1117351); format: functional, cell-based

5-hydroxytryptamine receptor 1A, sequence (P08908 whole entry): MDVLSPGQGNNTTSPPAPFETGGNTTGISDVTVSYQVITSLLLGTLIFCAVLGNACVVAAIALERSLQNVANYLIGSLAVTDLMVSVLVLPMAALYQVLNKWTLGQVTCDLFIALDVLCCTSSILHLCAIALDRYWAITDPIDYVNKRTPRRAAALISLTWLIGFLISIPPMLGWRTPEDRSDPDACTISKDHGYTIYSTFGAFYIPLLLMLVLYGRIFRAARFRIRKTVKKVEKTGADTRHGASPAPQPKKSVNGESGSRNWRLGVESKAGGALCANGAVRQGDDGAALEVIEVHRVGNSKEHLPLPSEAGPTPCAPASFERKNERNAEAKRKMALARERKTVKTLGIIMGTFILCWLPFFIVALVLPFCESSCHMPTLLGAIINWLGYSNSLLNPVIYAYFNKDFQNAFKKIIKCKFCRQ

Structure (SMILES): CCOC(=O)C1CCN(C(c2cccnc2)c2c(NC(=O)c3ccco3)sc(C)c2C)CC1 (configuration not stated)
- EC50 [1]: > 50 µM (not active)
- AC50 [2]: 1.05 µM (active)
- AC50 [3]: 29.4 µM (active)

Structure (SMILES): CN1CCc2ccccc2C1Cc1ccccc1NC(=O)c1sc2ccccc2c1Cl (configuration not stated)
- CC50 [4]: > 100 µM (active)
- EC50 [5]: 2.73 µM (active)
- EC50 [6]: > 60 µM (not active)
- IC50 [7]: 41.2 µM (active)

Structure (SMILES): Fc1ccc(N/N=C2/CC(c3ccccc3)Oc3ccccc32)c(F)c1 (configuration not stated)
- IC50 [8]: > 100 µM (active)

Structure (SMILES): O=C(c1cccc(F)c1)N1CC(=O)N2[C@H](C1)[C@@H](c1ccc(-c3cccnc3)cc1)[C@@H]2CO
- AC50 [9]: 0.151 µM (active)
- AC50 [10]: 0.331 µM (active)
- AC50 [11]: 0.088 µM (active)
- AC50 [12]: 0.0729 µM (active)

Structure (SMILES): O=C(C1CC1)N1CC(=O)N2[C@H](C1)[C@@H](c1ccc(C#CCc3ccccc3)cc1)[C@@H]2CO
- AC50 [10]: 9.21 µM (active)
- AC50 [13]: 35.5 µM (active)

Structure (SMILES): O=C(CCN1CCN2CCCC2C1)N1c2ccccc2Sc2ccc(Cl)cc21 (configuration not stated) [AZACLORZINE]
- IC50 [14]: 16.8 µM (inactive)

Structure (SMILES): CCCCCCCCCCCCCCCCCCOCC(O)CO (configuration not stated) [BATILOL]
- GI50 [15]: 9.82 µM (inactive)
- GI50 [16]: 22.5 µM (inactive)
- GI50 [17]: 6.65 µM (inactive)
- IC50 [18]: > 40 µM (inactive)
- IC50 [19]: > 40 µM (inactive)

Structure (SMILES): CCCOc1ccc2[nH]c(NC(=O)OC)nc2c1 [OXIBENDAZOLE]
- IC50 [20]: 0.0622 µM (active)
- IC50 [21]: 0.0567 µM (active)
